IC50 data for three molecules are collected here from BindingDB's records for patent US12384753 (Enanta Pharmaceuticals, 2025).

Each structure is given as a SMILES string.

One may read the IC50 as the concentration that inhibits the measured activity by half. A high value points to weaker potency.

The assay deals with T1, 17-beta-hydroxysteroid dehydrogenase 13 (Homo sapiens, UniProt Q7Z5P4).
T1 sequence (Q7Z5P4 whole entry): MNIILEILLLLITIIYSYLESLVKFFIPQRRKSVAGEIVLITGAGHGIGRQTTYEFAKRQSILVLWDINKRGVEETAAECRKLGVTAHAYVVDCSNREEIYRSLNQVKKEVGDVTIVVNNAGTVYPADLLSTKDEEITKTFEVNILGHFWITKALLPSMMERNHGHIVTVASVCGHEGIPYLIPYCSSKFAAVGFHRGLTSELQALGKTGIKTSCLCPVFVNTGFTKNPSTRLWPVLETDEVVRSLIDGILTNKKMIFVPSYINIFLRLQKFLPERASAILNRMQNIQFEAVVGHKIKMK
The assay is described as follows: HSD17B13 rapid-fire mass spectrometry assay (RF/MS assay). An excerpt:
Recombinant human HSD17B13 was expressed and purified from sf9 cells at Charles River Labs (Saffron Walden, UK). Leukotriene B4 (Catalog #71160-24-2) and 12-oxoleukotriene B4 (Catalog #20140) were purchased from Cayman Chemicals (Ann Arbor, Michigan.). NAD+ (Catalog #N8285), BSA (Catalog #A7030), DMSO (Catalog #D2650), and Tween-20 (Catalog #11332465001) were purchased from Sigma (St. Louis, MO). Formic acid (Catalog #28905) was from ThermoFisher Scientific and 384 deep well PP microplates (Catalog #784261) were from Greiner Bio-One. In a typical IC50 assay performed in a 384w PP microplate, test compounds (0-100 μM) were incubated with HSD17B13 (80 nM), LTB4 (10 μM), and NAD+ (0.5 mM) in 10 μL assay buffer (20 mM Tris (pH 7.5), BSA (0.005%), and Tween-20 (0.01%)) at RT for 3 h. The assays were quenched by adding 20 μL of 0.15% aqueous formic acid and the plates were frozen at −80° C. RF/MS analysis was performed at PureHoney Technologies (Billerica, MA) on a RapidFire RF300 system (Agilent Technologies, Inc.) coupled to an API 4000 triple quadrupole mass spectrometer (Sciex) equipped with Agilent RapidFire cartridge type A (C4). The mobile phase was 0.09% formic acid and 0.01% trifluoracetic acid in water (Buffer A) and 0.09% formic acid and 0.01% trifluoracetic acid in 80% aqueous acetonitrile (Buffer B). The RapidFire method conditions were the following: 250 ms aspirate, 3000 ms load/desalt, 4000 ms elute, and 500 ms re-equilibrate. RF-MS/MS was performed in negative polarity (−4500 V), the source temperature was 650° C., and gas 1 and gas 2 settings for nitrogen were set to 50. The curtain gas and collision gas were also nitrogen and were set to 20 and 12, respectively. Leukotriene B4 (335.3) and 12-oxoLeukotriene B4 (333.3) SRM transitions were optimized with Discovery Quant software and extracted ion counts for these analytes were determined. Data Analysis. HSD17B13 enzyme activity was measured as percent conversion of extracted ion counts and normalized to high and low controls to determine percent residual activity at various concentrations of test compounds. […]
The molecule `COc1ccc(C#Cc2nc(S(=O)(=O)Nc3ccc(C(=O)O)cc3OC)cs2)c(C2CC2)c1` [US12384753, Example 396] came in with an IC50 of less than 0.1 µM.
For `COc1cc(C(=O)O)ccc1NS(=O)(=O)c1coc(-c2ccc(F)cc2)n1` [US12384753, Example 417] the value was less than 0.1 µM; for `COc1cc(C(=O)O)ccc1NS(=O)(=O)c1coc(-c2ccc(Cl)cc2)n1` [US12384753, Example 418], less than 0.1 µM.
